These results are taken from patent US20170224833A1, “SELF-ASSEMBLING MOLECULES THAT ACCUMULATE IN ACIDIC TUMOR MICROENVIRONMENTS” (OHIO STATE INNOVATION FOUNDATION, priority 2014, published 2017).

Residues, ends and D or L forms follow the SMILES beside them. No end group written: not given here. *: point of attachment. Rubipy = bis(2,2'-bipyridine)-4'-methyl-4-carboxybipyridine ruthenium(II), conjugated to the lysine epsilon-amine; Palmitoyl = CCCCCCCCCCCCCCCC(=O)*

Type in all cases: physicochemical
A short description of series [1]: MRI r1 relaxivity measurement, 1.5 Tesla. Particulars: control standard, 1.5 T. As for the experimental part: An MR relaxometry phantom was built by fixing 5 mm NMR sample tubes containing PA samples at a concentration of 500 μM and pH values 4 and 10 in a 600 ml beaker filled with deionized water. The samples also contained 150 mM NaCl and 2.2 mM CaCl2. The phantom was scanned on a 1.5 Tesla Signa Excite MRI scanner using an 8-channel phased-array head coil (GE Healthcare, Milwaukee, Wis., USA). R relaxometry data were acquired using an Inversion Recovery Fast Spin-Echo (IR-FSE) sequence with the following parameters: inversion time TI=50/100/200/400/600/800/1200/1600/3200 ms; repetition time TR=8000 ms; echo time TE=11 ms; echo train length=10; 90° flip angle; 100×100 mm^2 field-of-view (FOV); 0.5 mm in-plane resolution; 2 mm slice thickness; single coronal slice placed at the center of the phantom. Sample longitudinal relaxation rates (R1) were calculated by fitting the MR signal intensities observed at different TIs (S(TI)) to a three parameter model [Lu et al., MRM 2004]:
S(TI)=|S0×(1−C×exp(−TI×R1))|
Where S0 is the equilibrium signal, C is a constant accounting for imperfect inversion of magnetization. The r1 relaxivity was calculated as the slope in the linear relationship between sample concentrations and their R1 relaxation rates.

A short description of series [2]: Circular dichroism (CD) spectroscopy of pH-triggered self-assembly transition in 150 mM NaCl, 2.2 mM CaCl2. Particulars: for CD Transition pH: 10 μM PA, 150 mM NaCl, 2.2 mM CaCl2, random coil to β-sheet. As to the method: The target PA concentration (10 μM) was below the detectable limit of conventional techniques to determine the morphology such as cryoTEM and small-angle X-ray scattering. Consequently, circular dichroism (CD) spectroscopy was initially used to characterize the morphology of these PAs at various pH values. PA1 was the first molecule synthesized that underwent a self-assembly transition in the desired pH range of 6.6-7.4 at 10 μM PA concentration, in 150 mM NaCl and 2.2 mM CaCl2 (FIG. 2A) (Goldberger, J. E., et al. Angew. Chem. Int. Ed. 2011 50:6292-95). […] The transition pH from random coil to β-sheet occurred at a pH of 6.6. The transition pH was defined as the value at which the ellipticity at 205 nm rises to zero, followed by the appearance of a minimum at 218-220 nm.
Measurements were done on a Jasco-815 Circular Dichroism spectrometer using 1 cm path length quartz cuvettes. 10 μM solutions of peptide amphiphiles were prepared in 150 mM NaCl and 2.2 mM CaCl2 by dilution from a concentrated PA stock (0.5-1 mM, pH 9). Double de-ionized Milli-Q water was used for preparing all solutions. The solutions were then heated at 80° C. for 30 minutes in a water bath and gradually cooled to room temperature. An Accumet XL15 pH meter (Fisher Scientific) coupled with an Orion Ross Ultra semi-micro electrode (8103BNUWP, Thermo Scientific) was used to adjust the pH of the solution to the desired value followed by collection of the CD spectra Each trace shown was averaged over 3 accumulations and was baseline subtracted using aqueous solutions containing salts only. All spectra are cut-off below 205 nm due to absorption by NaCl and CaCl2.
Measurements were done on a Jasco-815 Circular Dichroism spectrometer using 0.5-1 cm path length quartz cuvettes. 500-10 μM of either pure PA or PA mixtures were prepared in 150 mM NaCl and 2.2 mM CaCl2 (and 1.8 mM 20 kDa PEG in select samples) by dilution from a concentrated PA stock (0.5-1 mM, pH 9). Double de-ionized Milli-Q water was used for preparing all solutions. The solutions were then heated at 80° C. for 30 minutes in a water bath and gradually cooled to room temperature. An Accumet XL15 pH meter (Fisher Scientific) coupled with an Orion Ross Ultra semi-micro electrode (8103BNUWP, Thermo Scientific) was used to adjust the pH of the solution to the desired value followed by collection of the CD spectra. Each trace shown was averaged over 3 accumulations and was baseline subtracted using aqueous solutions containing salts only. All spectra are cut-off below 200 nm due to absorption by NaCl and CaCl2. The same procedure was followed for the salt control samples with 3.0 and 4.0 mM CaCl2.
Self-assembly behavior is known to be extremely sensitive to minor changes in monomer structure and presence of impurities. […] CAC measurements via the pyrene 1:3 method (Das, D. et al. J. Colloid Interface Sci. 2008, 327:198) were used to ascertain the single molecule to spherical micelle transitions at varying pH values (FIGS. 24A-24C). CD Spectroscopy was used to determine the pH points at which different concentrations (10-500 μM) of the PA molecules transitioned from a random coil to a β-sheet secondary structure (FIGS. 25A-25C). It has been previously shown that the random coil and β-sheet structures correspond to spherical micellar/isolated molecule and nanofiber morphologies respectively (Ghosh, A. et al. J. Am. Chem. Soc. 2012, 134:3647). The CD transition point was defined to be the pH value at which the ellipticity at 200 nm rose from a negative value (random coil) to zero accompanied by the appearance of a minimum at 218-220 nm. The addition of PA66 shifted the CD transition pH to more basic values by ˜0.6 pH units. […] This ˜0.6 pH shift in CD transition pH to more basic values were also observed when 1.5% of PA67 was added to PA65. […]
A general note: Circular dichroism is widely used to follow secondary structure.

Series [3] in a line: pH titration of peptide amphiphiles (pKa). The note with it: 10 μM. As for the experimental part: The titration measurements were conducted on 10 μM peptide amphiphile solutions prepared in 150 mM NaCl and 2.2 mM CaCl2 using milli-Q water. The solution was heated at 80° C. for 30 minutes followed by slow cooling at room temperature. The pH of the solution was then adjusted to 4 using HCl. Finally, an Accumet XL15 pH meter (Fisher Scientific) coupled with an Orion Ross Ultra semi-micro electrode (8103BNUWP, Thermo Scientific) was used to track changes in pH of the solution as NaOH solution was added in small increments. pKa values were obtained from the second inflection points of the first derivative plots of the titration data. The first transition corresponds to neutralization of excess HCl. The calculated pKas reflect the average pKa for all four glutamic acids.

Series [4] in a line: Fluorescence anisotropy (FA) in mouse blood serum (pure or diluted). The note with it: only 1.5% PA67 isolated molecules in serum (control). As for the experimental part:
Fluorescence and FA measurements were done using 20-100 μM of PA mixtures in 150 mM NaCl and 2.2 mM CaCl2 and various serum (MP Biomedicals) concentrations (0.75-100% v/v) diluted in the same salt buffer. PA samples in serum or MSA were not heated and cooled. All samples were then pH adjusted using HCl/NaOH solutions, transferred to a 96-well plate followed by collection of fluorescence emission from PA-(Rubipy)3 first parallel (Ipar) and then perpendicular (Iperp) to the excitation polarization using a hybrid reader fluorimeter (BioTek Synergy H4) at room temperature. The excitation wavelength used was 458 nm and the emission was monitored using a 640/20 nm filter. The same method was followed for control experiments involving serum background samples, dye conjugated MSA, only 1.5% PA-(Rubipy)3 in serum and 100 μM PA mixture in MSA and salt buffer. FA was calculated using the following equation: […]
In general terms: Fluorescence polarisation rises when a labelled molecule tumbles more slowly, as on binding a larger partner.

A short description of series [5]: Transmission electron microscopy (TEM) of self-assembled morphology. As to the method: TEM images were obtained using solutions of either 10 μM or 0.5 mM peptide amphiphile concentration, as well as 150 mM NaCl and 2.2 mM CaCl2 in Milli-Q water. The solutions were first heated at 80° C. for 30 minutes in a water bath and then gradually cooled to room temperature. This was followed by pH adjustment using either HCl or NaOH. 5 μL of this solution was pipetted onto a Carbon Formvar grid (Electron Microscopy Sciences) and allowed to sit for 2 minutes before being wicked dry using filter paper. For the 10 μM experiments that were performed to determine the time dependence of nanofiber formation, solutions were dropcast onto the grid within three minutes of pH adjustment. The samples were then negatively stained using 1 wt % uranyl acetate and imaged under a FEI Tecnai G2 Bio TWIN TEM system, operating at 100 kV. All TEM experiments were performed in triplicate, using at least three different freshly prepared solutions and grids. […]
TEM images were obtained at various concentrations and pH values, with 150 mM NaCl and 2.2 mM CaCl2 in deionized water. Solutions were heated at 80° C. for 30 minutes and gradually cooled to room temperature. Following temperature equilibration, pH adjustment was achieved using HCl or NaOH. 5 μL of this solution was pipetted onto a Carbon Formvar grid (Electron Microscopy Sciences) and allowed to sit for 2 minutes before being wicked dry using filter paper strips. The samples were negatively stained with 1 wt % uranyl acetate and imaged under a FEI Tecnai G2 Bio TWIN TEM system operating at 100 kV.
Transmission electron microscopy was employed to confirm the self-assembled morphology at different pH values and concentrations. The sample to be tested was basified to a pH of 10, stirred at 90° C. in an oil bath for 30 minutes and cooled to room temperature. The pH was then adjusted with HCl and NaOH to set the peptide solution (in 150 mM NaCl and 2.2 mM CaCl2) to a pH of either 5 or 9. Once the desired pH was reached, 5 μL of the sample was placed and spread onto a Carbon Formvar grid (Electron Microscopy Sciences) and allowed to sit for one minute before being wicked dry with filter paper. A 1 wt % uranyl acetate solution was added and spread over the grid to negatively stain the sample, and was wicked dry immediately after application. The grid was then examined by a FEI Tecnai G2 Biotwin TEM at 100 keV. The diameters of each self-assembled morphology was determined via averaging at least 30 different objects.

Where [6] appears, read: basic to acidic transition from small molecule to cylindrical nanofiber, simulated serum environment.
[7] abbreviates: basic to acidic transition from spherical micelle to cylindrical fiber, simulated serum environment (150 mM NaC, 2.2 mM CaCl2).

Regarding `CNC[C@H](O)[C@@H](O)[C@H](O)[C@H](O)CO.CNC[C@H](O)[C@@H](O)[C@H](O)[C@H](O)CO.O=C([O-])CN(CCN(CC(=O)[O-])CC(=O)O)CCN(CC(=O)[O-])CC(=O)O.[Gd+3]` [Magnevist, reference compound], in series [1], the “relaxivity of water protons” value was determined as 4.5 mM⁻¹ s⁻¹.

Regarding `CCCCCCCCCCCCCCCC(=O)N[C@@H](Cc1ccccc1)C(=O)N[C@@H](C)C(=O)N[C@@H](C)C(=O)N[C@@H](C)C(=O)N[C@@H](CCC(=O)O)C(=O)N[C@@H](CCC(=O)O)C(=O)N[C@@H](CCC(=O)O)C(=O)N[C@@H](CCC(=O)O)C(N)=O` [PA2] (Palmitoyl-FAAAEEEE-NH2), the “CD Transition pH” value in series [2] was 6.6. Besides, the “pH transition point at 10 μm PA” value in series [2] (setting [6]) was 6.6.

As for `CCCCCCCCCCCCCCCC(=O)N[C@@H](Cc1ccc(O)cc1)C(=O)N[C@@H](C)C(=O)N[C@@H](C)C(=O)N[C@@H](C)C(=O)N[C@@H](CCC(=O)O)C(=O)N[C@@H](CCC(=O)O)C(=O)N[C@@H](CCC(=O)O)C(=O)N[C@@H](CCC(=O)O)C(N)=O` [PA4] (Palmitoyl-YAAAEEEE-NH2), the “CD Transition pH” value in series [2] is given as 6.0. The “pH transition point at 10 μm PA” value in series [2] (setting [6]) is given as 6.0. Further, the “glutamic acids in the deprotonated form at the transition” value in series [3] was found to be 91%.

For the compound “Palmitoyl-IAAAEEEEK(DO3A:Lu)-NH2 (Palmitoyl-IAAAEEEEK(DO3A)-NH2; also: DO3A chelates Lu) [PA8]”, in series [2] (setting [7]), the “pH transition point at 10 μm PA” value was 5.7.

For the compound “Palmitoyl-IAAAEEEEK(DO3A:Tb)-NH2 (Palmitoyl-IAAAEEEEK(DO3A)-NH2; also: DO3A chelates Tb) [PA7]”, the “pH transition point at 10 μm PA” value in series [2] (setting [7]) is 5.7.

In the case of “Palmitoyl-MAAAEEEEK-Rubipy (Palmitoyl-MAAAEEEEK(Rubipy); not fully specified (C-terminus); printed as Palmitoyl-MAAAEEEEK-Rubipy) [PA67]”, the “FA, constant independent of pH” value in series [4] is ~0.05.

Take “Palmitoyl-VAAAEEEEK(DO3A:Gd)-NH2 (Palmitoyl-VAAAEEEEK(DO3A)-NH2; also: DO3A chelates Gd) [PA6]”: the “pH transition point at 10 μm PA” value in series [2] (setting [7]) is 5.3. In series [2] (for each concentration (10 μM, 500 μM)), the “nanofiber to micelle transition pH, lower than PA5” value was 0.4 units.

As for Palmitoyl-VAAAEEKE-NH2 [PA11], in series [2] (setting [6]), the “pH transition point at 10 μm PA” value is given as 6.2.

In the case of “Palmitoyl-YAAAEEEEK(DO3A:Gd)-NH2 (Palmitoyl-YAAAEEEEK(DO3A)-NH2; also: DO3A chelates Gd) [PA9]”, in series [2] (setting [7]), the “pH transition point at 10 μm PA” value was 5.1.

Turning to palmitoyl-YYAAEEEEK(DO3A:Gd)-NH2 [PA73], the CD pattern entry in series [2] (10 μM, pH 5-11) is “β-sheet pattern”. Further, the nanofiber diameter was found to be 8.5±1.0 nm in series [5] (500 μM, pH 5) and 8.6±0.9 nm in series [5] (500 μM, pH 9).

As to “pentadecyl-YYAAEEEEK(DO3A:Gd)-NH2 [PA75]”, the “micelle to nanofiber transition pH, more basic than PA74” value in series [2] (all concentrations observed) is on record as 0.15-0.63 pH units. For the same compound, in series [5] (FIG. 50: pH 5, PA74 500 μM, PA75 100 μM), the nanofiber diameter came out at 8.1±1.3 nm. The “morphology by TEM” value was “nanofiber morphology” in series [5] (pH 5, PA74 500 μM, PA75 100 μM) and “spherical micelle morphology” in series [5] (pH 9, PA74 500 μM, PA75 100 μM).
